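GI50: concentration for 50% inhibition of growth. Definition used: TGI = concentration required for complete inhibition of growth.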
Key:
Assay in all cases: NCI tumour cell line growth inhibition, 384-well format
HCT-15 colon = tested on: HCT-15 colon
OVCAR-4 ovarian = tested on: OVCAR-4 ovarian
M14 melanoma = tested on: M14 melanoma
IGROV1 ovarian = tested on: IGROV1 ovarian
HOP-92 NSCLC = tested on: HOP-92 NSCLC
RXF 393 renal = tested on: RXF 393 renal
MOLT-4 leukemia = tested on: MOLT-4 leukemia
UACC-257 melanoma = tested on: UACC-257 melanoma
PC-3 prostate = tested on: PC-3 prostate
HCT-116 colon = tested on: HCT-116 colon
SF-295 CNS = tested on: SF-295 CNS
SR leukemia = tested on: SR leukemia
RPMI-8226 leukemia = tested on: RPMI-8226 leukemia
SF-539 CNS = tested on: SF-539 CNS
CAKI-1 renal = tested on: CAKI-1 renal
MDA-MB-468 breast = tested on: MDA-MB-468 breast
HL-60(TB) leukemia = tested on: HL-60(TB) leukemia
SW-620 colon = tested on: SW-620 colon
OVCAR-3 ovarian = tested on: OVCAR-3 ovarian
OVCAR-8 ovarian = tested on: OVCAR-8 ovarian
MDA-MB-231 breast = tested on: MDA-MB-231 breast
MCF7 breast = tested on: MCF7 breast
T-47D breast = tested on: T-47D breast
NCI-H23 lung = tested on: NCI-H23 lung
A549 NSCLC = tested on: A549 NSCLC
MALME-3M melanoma = tested on: MALME-3M melanoma
U251 glioblastoma = tested on: U251 glioblastoma
KM12 colon = tested on: KM12 colon
TK-10 renal = tested on: TK-10 renal

Question: With `COc1cccc2c1C(=O)c1c(O)c3c(c(O)c1C2=O)C[C@@](O)(/C(CO)=N/NC(=O)CCCCCN1C(=O)C=CC1=O)C[C@@H]3O[C@H]1C[C@H](N)[C@H](O)[C@H](C)O1` as the compound, how does the GI50 (HCT-15 colon) read?
Answer: 470 nM

Question: And the TGI (HCT-15 colon)?
Answer: 3110 nM

Question: What about the GI50 (OVCAR-4 ovarian) of the same compound?
Answer: 243 nM

Question: And the TGI (OVCAR-4 ovarian)?
Answer: 716 nM

Question: And the GI50 (M14 melanoma)?
Answer: 72.6 nM

Question: And the TGI (M14 melanoma)?
Answer: 258 nM

Question: What about the GI50 (IGROV1 ovarian) of the same compound?
Answer: 346 nM

Question: What about the TGI (IGROV1 ovarian) of the same compound?
Answer: 2480 nM

Question: What about the GI50 (HOP-92 NSCLC) of the same compound?
Answer: 37 nM

Question: And the TGI (HOP-92 NSCLC)?
Answer: 247 nM

Question: And the GI50 (RXF 393 renal)?
Answer: 45.2 nM

Question: What about the TGI (RXF 393 renal) of the same compound?
Answer: 228 nM

Question: And the GI50 (MOLT-4 leukemia)?
Answer: 10.9 nM

Question: And the TGI (MOLT-4 leukemia)?
Answer: 23 nM

Question: What about the GI50 (UACC-257 melanoma) of the same compound?
Answer: 180 nM

Question: What about the TGI (UACC-257 melanoma) of the same compound?
Answer: 552 nM

Question: And the GI50 (PC-3 prostate)?
Answer: 407 nM

Question: And the TGI (PC-3 prostate)?
Answer: 1940 nM

Question: What about the GI50 (HCT-116 colon) of the same compound?
Answer: 74.9 nM

Question: And the TGI (HCT-116 colon)?
Answer: 626 nM

Question: What about the GI50 (SF-295 CNS) of the same compound?
Answer: 154 nM

Question: And the TGI (SF-295 CNS)?
Answer: 470 nM

Question: What about the TGI (SR leukemia) of the same compound?
Answer: 15.7 nM

Question: What about the TGI (RPMI-8226 leukemia) of the same compound?
Answer: 173 nM

Question: And the GI50 (SF-539 CNS)?
Answer: 38.7 nM

Question: What about the TGI (SF-539 CNS) of the same compound?
Answer: 140 nM

Question: What about the GI50 (CAKI-1 renal) of the same compound?
Answer: 155 nM

Question: And the TGI (CAKI-1 renal)?
Answer: 1060 nM

Question: And the GI50 (MDA-MB-468 breast)?
Answer: 44.8 nM

Question: And the TGI (MDA-MB-468 breast)?
Answer: 169 nM

Question: What about the GI50 (HL-60(TB) leukemia) of the same compound?
Answer: 15.1 nM

Question: What about the TGI (HL-60(TB) leukemia) of the same compound?
Answer: 29.4 nM

Question: And the GI50 (SW-620 colon)?
Answer: 59.3 nM

Question: What about the TGI (SW-620 colon) of the same compound?
Answer: 829 nM

Question: What about the GI50 (OVCAR-3 ovarian) of the same compound?
Answer: 159 nM

Question: What about the TGI (OVCAR-3 ovarian) of the same compound?
Answer: 686 nM

Question: And the GI50 (OVCAR-8 ovarian)?
Answer: 141 nM

Question: And the TGI (OVCAR-8 ovarian)?
Answer: 1310 nM

Question: And the GI50 (MDA-MB-231 breast)?
Answer: 62.5 nM

Question: What about the TGI (MDA-MB-231 breast) of the same compound?
Answer: 206 nM

Question: What about the GI50 (MCF7 breast) of the same compound?
Answer: 93.6 nM

Question: And the TGI (MCF7 breast)?
Answer: 377 nM

Question: And the GI50 (T-47D breast)?
Answer: 61.5 nM

Question: What about the TGI (T-47D breast) of the same compound?
Answer: 280 nM

Question: What about the GI50 (NCI-H23 lung) of the same compound?
Answer: 166 nM

Question: And the TGI (NCI-H23 lung)?
Answer: 381 nM

Question: What about the GI50 (A549 NSCLC) of the same compound?
Answer: 98 nM

Question: And the TGI (A549 NSCLC)?
Answer: 1430 nM

Question: What about the GI50 (MALME-3M melanoma) of the same compound?
Answer: 152 nM

Question: What about the TGI (MALME-3M melanoma) of the same compound?
Answer: 403 nM

Question: What about the GI50 (U251 glioblastoma) of the same compound?
Answer: 50.4 nM

Question: And the TGI (U251 glioblastoma)?
Answer: 188 nM

Question: And the GI50 (KM12 colon)?
Answer: 116 nM

Question: What about the TGI (KM12 colon) of the same compound?
Answer: 295 nM

Question: And the GI50 (TK-10 renal)?
Answer: 225 nM

Question: What about the TGI (TK-10 renal) of the same compound?
Answer: 1040 nM
